The target of one data set is T1, MMACHC-R161Q (Homo sapiens, UniProt Q9Y4U1, R161Q).
T1 construct: His-tag (N, cleaved yes); made in house; host or cells: E. coli BL21 DE3
T1 sequence (Q9Y4U1 1-282 R161Q): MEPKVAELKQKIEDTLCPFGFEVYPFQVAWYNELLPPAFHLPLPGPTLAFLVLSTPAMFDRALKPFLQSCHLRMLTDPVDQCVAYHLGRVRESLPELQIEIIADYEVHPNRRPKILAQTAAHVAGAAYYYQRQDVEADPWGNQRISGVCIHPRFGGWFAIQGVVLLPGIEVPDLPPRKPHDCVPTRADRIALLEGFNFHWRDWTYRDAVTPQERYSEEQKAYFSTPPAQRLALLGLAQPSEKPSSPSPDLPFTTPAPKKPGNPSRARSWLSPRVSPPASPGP
As to the kind of experiment: Differential scanning fluorimetry (DSF), stabilization by cobalamins. In kind it is binding. The settings on record: for ΔTm max: Tm at 50 μM ligand minus Tm at 0 μM ligand; for ΔTm max / AC50: DSF; for AC50: half-maximal effective ligand concentration for stabilization, 3 μM protein, fit of ΔTm vs ligand concentration. As for the experimental part:
(§1) DSF was performed and analyzed as described in Niesen et al., with minor modifications. Purified MMACHC proteins were diluted to 0.1 mg/ml (3 μM) in buffer (10 mM HEPES pH 7.5, 0.5 M NaCl, 5% glycerol) with 1:1000 Sypro Orange (Invitrogen) and run in triplicate. The proteins were heated from 5 to 75 °C with a ramp rate of 1 °C/min in a thermocycler (Bio-rad C1000 Thermocycler, CFX96 Real-time system). All graphs were normalized so that minimum fluorescence was set to 0 and maximum fluorescence set to 1. […] Final graphs and AC50’s were generated using Kadeidagraph 4.0 software (Synergy Software, Reading, PA). AC50’s were determined by fitting the ΔTm vs. ligand concentration curves to the equation ΔTm = ΔTm max[S]/(AC50 + [S]) where ΔTm is the change in melting temperature (Tm[protein + ligand] − Tm[protein]), ΔTm max is the maximal change in Tm at saturating (50 μM) ligand concentration and [S] is the ligand concentration.
(§2) Wild-type (MMACHC-wt) and mutant (MMACHC-R161Q) MMACHC were expressed and purified to >95% purity, with His-tag removed, as judged by SDS–PAGE (Fig. 2A). In order to investigate the thermostability of MMACHC we used DSF, a method that measures protein stability and ligand-induced changes in stability [[20,21]]. DSF uses an environmentally sensitive dye, such as Sypro orange, to monitor protein-unfolding caused by heat denaturation. As the protein unfolds, the dye, which has a higher fluorescence quantum yield in nonpolar environments than in aqueous media, binds to hydrophobic regions of the protein, causing a large increase in fluorescence [[22,23]]. Protein stability is expressed as the melting point of the protein (Tm), that is, the transition midpoint of the fluorescence curve, corresponding to the temperature at which half of the protein molecules are folded and half are unfolded. […] Even lower was the stability of MMACHC-R161Q (Tm = 37.1 ± 0.7 °C) (Fig. 2B). The difference in Tm was small but nonetheless significant (p < 0.01). A second difference between the wild-type and mutant proteins was the shape of the unfolding curves, with the unfolding of the mutant protein showing high cooperativity indicating a two-state unfolding mechanism while the unfolding of the wild-type protein stretched over a larger temperature range and comprised two phases (Fig. 2B; also Fig. 3A at 0 μM OHCbl).

The target of another data set is T2, MMACHC-wt (Homo sapiens, UniProt Q9Y4U1).
T2 construct: His-tag (N, cleaved yes); made in house; host or cells: E. coli BL21 DE3
T2 sequence (Q9Y4U1 1-282): T1 sequence (Q9Y4U1 1-282 R161Q) with Q161R
The description is as above. Type of data set: binding. The settings on record: for ΔTm max: Tm at 50 μM ligand minus Tm at 0 μM ligand; for AC50: half-maximal effective ligand concentration for stabilization, 3 μM protein, fit of ΔTm vs ligand concentration. As for the experimental part:
as §1, §2

Data set [1] has as its target T3, His-MMACHC-wt (Homo sapiens, UniProt Q9Y4U1).
T3 construct: made in house; host or cells: E. coli BL21 DE3
T3 sequence (Q9Y4U1 1-282): T1 sequence (Q9Y4U1 1-282 R161Q) with Q161R
On the set-up: method as in PMID 18779575. The settings on record: cited from earlier work.

In a further data set the target is T4, GST-MMACHC-wt (Homo sapiens, UniProt Q9Y4U1).
T4 construct: made in house
T4 sequence (Q9Y4U1 1-282): T1 sequence (Q9Y4U1 1-282 R161Q) with Q161R
As to the kind of experiment: UV-visible absorption spectra, base-on/base-off binding. The note with it: 5 μM cobalamin, 50 μM protein, pH 7.0. How it is done: (§3) To determine base-on or base-off binding, 5 μM of the appropriate cobalamin or cobinamde in buffer (100 mM Tris, pH 7.0), was incubated in the dark with 400 μl total of 50 μM MMACHC protein (wild-type or R161Q), prepared in the same buffer, or alone, for 5 min at room temperature. In order to retain the high amounts of protein necessary for these experiments, the His-tag (wt and R161Q) or GST-tag (wt protein) was left on. Absorption spectrum measurements were carried out using a MOS-250 spectrometer and recorded using Bio-Kine 32 v4.20 software.
(§4) In order to determine whether the R161Q mutation interferes with the ability of MMACHC to support this transition, we examined the UV–visible absorption spectra for the proteins bound to AdoCbl, as an example of an alkylcobalamin, as well as for the proteins bound to CNCbl and OHCbl. Each cobalamin was added at a concentration of […] (Fig. 5). To determine whether the cobalamin was base-on or base-off, in the case of CNCbl both base-on and base-off spectra were determined for the free vitamin, as previously reported [[12,14]]. […] Confirming our earlier data, GST-tagged MMACHC-wt bound CNCbl in the base-off state (Table 2). […] Both MMACHC-wt and MMACHC-R161Q bound AdoCbl in the base-off state (Fig. 5; Table 2). […] Finally, neither MMACHC-wt nor MMACHC-R161Q modified OHCbl binding, which retained the base-on profile regardless of the MMACHC species present (Fig. 5; Table 2).

Data set [2] deals with T3, His-MMACHC-wt. The data set is described as above. The settings on record: 5 μM cobalamin, 50 μM protein, pH 7.0. How it is done:
as §3, §4

A further data set deals with T5, His-MMACHC-R161Q (Homo sapiens, UniProt Q9Y4U1, R161Q).
T5 construct: made in house; host or cells: E. coli BL21 DE3
T5 sequence (Q9Y4U1 1-282 R161Q): T1 sequence (Q9Y4U1 1-282 R161Q)
The description is as above. The settings on record: 5 μM cobalamin, 50 μM protein, pH 7.0. As for the experimental part:
[…] In order to retain the high amounts of protein necessary for these experiments, the His-tag (wt and R161Q) or GST-tag (wt protein) was left on. Absorption spectrum measurements were carried out using a MOS-250 spectrometer and recorded using Bio-Kine 32 v4.20 software.
as §4

A short description of data set [3]: UV-visible absorption spectra of free cobalamin. Type of data set: physicochemical. The settings on record: base-on, nm. As for the experimental part:
as §3, §4

Data set [4] is described as follows: DSF thermostability of apo protein. In kind it is physicochemical. The note with it: apo form, His-tag removed, no ligand. As for the experimental part: as §1
Wild-type (MMACHC-wt) and mutant (MMACHC-R161Q) MMACHC were expressed and purified to >95% purity, with His-tag removed, as judged by SDS–PAGE (Fig. 2A). […] As the protein unfolds, the dye, which has a higher fluorescence quantum yield in nonpolar environments than in aqueous media, binds to hydrophobic regions of the protein, causing a large increase in fluorescence [[22,23]]. […]

Data set [5] is described as follows: Isothermal denaturation (ITD). Type of data set: physicochemical. The note with it: constant 35 °C over 120 min, Sypro orange fluorescence. How it is done:
ITD was performed as previously described with minor variations. Samples of both proteins prepared similarly as for DSF (at similar concentrations) were kept at constant temperature of 35 °C while monitoring the fluorescence of Sypro orange at intervals of one minute in a thermocycler (Bio-rad C1000 Thermocycler, CFX96 Real-time system) over 120 min (n = 12 for each protein).
We performed isothermal […] (ITD) to investigate further the difference in stability between the two proteins. ITD has been described as being more sensitive than DSF for detecting small changes in protein stability. ITD measures the unfolding of proteins at a constant temperature, typically chosen as a few degrees below the Tm, using a similar procedure as DSF including the use of Sypro orange as the reporter dye. […] After 120 min the intensity reached approximately half of the amplitude seen for unfolding with DSF (Fig. 2B). […] This difference cannot be explained with the relatively small difference in the Tm. If ITD is performed at a temperature that falls within the range of the unfolding transition a gradual increase in the proportion of unfolded protein molecules, i.e. a constant increase in fluorescence intensity, would still be expected even at temperatures […] the Tm (18).

Where a chain is given by its changes, count along the chain named. Names and notes keep the numbering of the source.

`C/C1=C2/[N-]C([C@H](CC(N)=O)[C@@]2(C)CCC(=O)NCC(C)O)[C@]2(C)N=C(/C(C)=C3N=C(/C=C4N=C1[C@@H](CCC(N)=O)C\4(C)C)[C@@H](CCC(N)=O)[C@]\3(C)CC(N)=O)[C@@H](CCC(N)=O)[C@]2(C)CC(N)=O.[C-]#N.[C-]#N.[Co]` (some centres unmarked) [Cbi, dicyanocobinamide]: at MMACHC-R161Q, the ΔTm max worked out at 6.8 ± 0.2 °C and the AC50 came to 9100 ± 1600 nM. In addition, at MMACHC-wt, the ΔTm max stood at 9.8 ± 0.2 °C and the AC50 was 1300 ± 200 nM.

Turning to `C/C1=C2/[N-][C@H]([C@H](CC(N)=O)[C@@]2(C)CCC(=O)NC[C@H](C)OP(=O)([O-])O[C@H]2[C@@H](O)[C@@H](n3cnc4cc(C)c(C)cc43)O[C@@H]2CO)[C@]2(C)N=C(/C(C)=C3N=C(/C=C4N=C1[C@@H](CCC(N)=O)C\4(C)C)[C@@H](CCC(N)=O)[C@]\3(C)CC(N)=O)[C@@H](CCC(N)=O)[C@]2(C)CC(N)=O.[CH3-].[Co+3]` [MeCbl, methylcobalamin], at MMACHC-R161Q, the ΔTm max was 9.3 ± 0.3 °C and the half-maximal activity concentration (AC50) amounted to 8000 ± 1600 nM. Further, on MMACHC-wt, the ΔTm max was found to be 12.7 ± 0.4 °C and the AC50 was 2100 ± 300 nM. Further, the “binding conformation (base-on/off)” value on His-MMACHC-wt [1] is “base-off”.

On to `CC1=C2N=C(C=C3N=C(C(C)=C4[N-]C(C(CC(N)=O)C4(C)CCC(=O)NCC(C)OP(=O)([O-])OC4C(CO)OC(n5cnc6cc(C)c(C)cc65)C4O)C4(C)N=C1C(CCC(N)=O)C4(C)CC(N)=O)C(CCC(N)=O)C3(C)C)C(CCC(N)=O)C2(C)CC(N)=O.[CH2-]C1OC(n2cnc3c(N)ncnc32)C(O)C1O.[Co+3]` (centres unmarked) [AdoCbl, 5′-deoxyadenosylcobalamin], for which the values for the ΔTm max at MMACHC-R161Q and on MMACHC-wt were 13.2 ± 0.1 °C and 15.5 ± 0.1 °C, respectively. Also, the values for the AC50 on MMACHC-R161Q and on MMACHC-wt were 1100 ± 100 nM and 900 ± 100 nM, respectively. For the same molecule, at MMACHC-R161Q (times/fold less effective than with MMACHC-wt), the “AC50 of R161Q relative to wild-type” value is given as “similar”. The Base-on/off result was “Off” at GST-MMACHC-wt; “base-off and Off” on His-MMACHC-wt [2]; “Off” on His-MMACHC-R161Q. Further, the α/β-Peak at GST-MMACHC-wt (nm) was 472 nm; on His-MMACHC-wt [2] (nm) it was 460 nm; on His-MMACHC-R161Q (nm), 461 nm; in data set [3] it was 524 nm. Moreover, the “binding conformation (base-on/off)” value at His-MMACHC-wt [1] is recorded as “base-off”.

B1: MMACHC-wt: recombinant wild-type MMACHC protein, His-tag removed by TEV (protein, UniProt Q9Y4U1 1-282, looked up)
Cyanocobalamin reductase / …: T1 sequence (Q9Y4U1 1-282 R161Q) with Q161R
As for B1, the “melting temperature (Tm)” value in data set [4] worked out at 39.3 ± 1.0 °C. The “unfolding by isothermal denaturation” value in data set [5] was “did not unfold”.

B2: MMACHC-R161Q: recombinant MMACHC protein carrying the late-onset cblC mutation R161Q, His-tag removed (protein, UniProt Q9Y4U1 1-282, looked up, variant R161Q)
Cyanocobalamin reductase / …: T1 sequence (Q9Y4U1 1-282 R161Q)
In the case of B2, the “melting temperature (Tm)” value in data set [4] was 37.1 ± 0.7 °C. Also, the “unfolding by isothermal denaturation” value in [5] is recorded as “unfolding”.

Source of the values: PMC2923755, “Thermolability of mutant MMACHC protein in the vitamin B12-responsive cblC disorder” (Molecular Genetics and Metabolism, 2010).
